According to paper PMC9706480, “Rhamnosyltransferases involved in the biosynthesis of flavone rutinosides in Chrysanthemum species” (Plant Physiology, 2022):

Experiments:
Assay in all cases: UPLC rhamnosylation assay, Michaelis-Menten fit
Conditions in all cases: 0.1 mM UDP-rhamnose as co-substrate; pH 7.5, 37 °C
[1] = system: T1, CnRhaT-HB2x (UGT79A23); type: biochemical, Chrysanthemum nankingense
T1 construct: full-length, 469 aa, MBP fusion (pMAL-c5X, tag removal not mentioned), E. coli Rosetta (DE3)

[2] = system: T2, CiRhaT-HB2x (UGT79A22); type: biochemical, Chrysanthemum indicum
T2 construct: full-length, 469 aa, MBP fusion (pMAL-c5X, tag removal not mentioned), E. coli Rosetta (DE3)

[3] = system: T3, CiRhaT-GD4x (UGT79A20); type: biochemical, Chrysanthemum indicum
T3 construct: full-length, 469 aa, MBP fusion (pMAL-c5X, tag removal not mentioned), E. coli Rosetta (DE3)

[4] = system: T4, CiRhaT-JX4x (UGT79A21); type: biochemical, Chrysanthemum indicum
T4 construct: full-length, 469 aa, MBP fusion (pMAL-c5X, tag removal not mentioned), E. coli Rosetta (DE3)

Km [1] [µM] | Km [2] [µM] | Km [3] [µM] | Km [4] [µM] | SMILES
9.45 ± 1.5 | 8.71 ± 1.79 | 14.2 ± 1.36 | 8.27 ± 0.984 | COc1ccc(-c2cc(=O)c3c(O)cc(O[C@@H]4O[C@H](CO)[C@@H](O)[C@H](O)[C@H]4O)cc3o2)cc1 [compound 1, acacetin-7-O-glucoside]
140 ± 32.1 | 57.1 ± 5.34 | 32.4 ± 5.9 | 45.3 ± 6.08 | O=c1cc(-c2ccc(O)cc2)oc2cc(O[C@@H]3O[C@H](CO)[C@@H](O)[C@H](O)[C@H]3O)cc(O)c12 [compound 2, apigenin-7-O-glucoside]
17.7 ± 2.82 | 9.35 ± 1.38 | 12.9 ± 1.27 | 7.67 ± 0.809 | COc1ccc(-c2cc(=O)c3c(O)cc(O[C@@H]4O[C@H](CO)[C@@H](O)[C@H](O)[C@H]4O)cc3o2)cc1O [compound 3, diosmetin-7-O-glucoside]
